# Data taken from patent US10232043B2, “Photoactivated molecules for light-induced modulation of the activity of electrically excitable cells and methods of using the same” (UNIVERSITY OF SOUTHERN CALIFORNIA, priority 2015, dated 2019).
# Entries after “also recorded” stand apart in the source; their conditions may differ.
# Legend:
# [1] = test system: whole-mount retinas from RCS rats; assay: Whole-mount retina multi-electrode recording; type: cell-based, rat; details: photoreceptor-degenerate retina, 100 micromolar for 30 minutes, 480 nm
# Source text: FIG. 26 illustrates data from whole-mount retinas from RCS rats. […] Each bin represents the frequency of spikes for 1 second. Before Rubpy treatment (14A), illumination at 480 nm elicited minimal change in spike frequency. […] Downward arrows mark the time of 100 ms (1st) and 1 second (2nd to fourth) light stimuli
# The retina will be freshly dissected from Royal College of Surgeons (RCS) rats (9 months or older to ensure total loss of photoreceptors). The whole-mount retina will then be placed onto a multi-electrode array with the ganglion cell layer side facing the electrodes and is held down on the array using a lightly weighted porous membrane. Extracellular field potentials are recorded from 15 or 75 μm diameter electrodes using an MEA1060-Up amplifier and MC Rack software (Multi-Channel Systems). The activity of the retinal in response to illumination is monitored before and after PVN incubation. The retina is continuously perfused with oxygenated (95% O2, 5% CO2), heated (32C) Ames' Medium for baseline activity. The retina is then perfused with Ames' Medium containing PVN for 30 min to 1 hr, followed by 10 min wash with regular Ames' Medium before recording in Ames' Medium with 5-10 mM ascorbate. The retina will be illuminated by white LED light through a bandpass excitation filter (460-500 nm) with durations of 100 μs, 1 ms, 10 ms, 100 ms, […] and 30 s. […]
# [2] = test system: INS, HEK293T and chromaffin cells; assay: Imaging RubpyC17 in live cells (membrane integration); type: cell-based, rat, human, mouse
# Experimental: Cells were imaged at 1-3 days after plating. The glass-bottomed chambers with adherent cells were washed twice with PBS and then filled with standard extracellular solution consisting of 140 mM NaCl, 2.8 mM KCl: 10 mM HEPES, 1 mM MgCl2, 2 mM CaCl2, and 10 mM glucose, pH adjusted to 7.2-7.4 and osmolarity adjusted to 290-310 mOsm. The chamber was then mounted on an Olympus IX70 inverted microscope stage for imaging, using a Cascade 512B EMCCD camera, operated by Metamorph software. Initial imaging was done with, cells in extracellular solution without RubpyC17, first under brightfield to evaluate cell health and morphology, then under widefield argon ion laser illumination at 488 nm (Coherent, Innova 90-5, Santa Clara, Calif.), to evaluate autofluorescence. Next, the extracellular solution was removed and replaced with extracellular solution containing the RubpyC17 compound (10 μM in <0.01% DMSO, final concentrations). Cell images were then acquired with illumination at 488 nm (collected with a long-pass red emission filter). For electrophysiological experiments, RubpyC17 compound was added to the extracellular solution (2-10 μM in <0.01% DMSO, final concentrations as indicated) and cells were incubated for 1.5-45 min, as indicated, then washed with extracellular solution without RubpyC17. Some chromaffin cells were also exposed continuously to 490-900 nM RubpyC17-containing extracellular solution.
# Illustrated here are rat insulinoma INS cells (see FIG. 17C, top), human embryonic kidney (HEK293T) cells (see FIG. 17C, middle), and primary cultured mouse chromaffin cells (see FIG. 17C, bottom). […] All cell types preserved morphology for at least 10 minutes. […] One embodiment of the possible light-induced electron transfer is depicted in FIG. 2.
# [3] = aqueous solution; cited from earlier work
# chromaffin cells = assay: Cell-attached patch test for membrane perforation; type: cell-based, mouse; details: in patch pipette, RubpyC17 18 μM, 10 min, amphotericin B within 5 min
# Source text: FIGS. 21A-21H depict data from various experiments related to characteristics of RubpyC17-loaded cells. […] Inset images shown to the right of trace confirmed proper integration of RubpyC17 in patched cells. FIGS. 21C-21E show the light-induced action potential firing in chromaffin cells was not due to biophysical changes in voltage-gated ion channels as there were no significant changes in current-voltage relationships (21C-21D) nor in steady-state activation curve (21E) in RubpyC17-loaded chromaffin cells before (open circle) or during (open circle) light illumination. […] Peak inward currents from each stimulation jump were plotted against corresponding stimulating voltages (n=6). […] Data from representative cell is shown (n=5). […] Currents resulting from capacitor-like behavior of chromaffin cell membranes during hyperpolarizing jumps to −85 mV from a resting membrane potential of −80 mV were recorded 5 min following giga-seal formation for amphoterecin B (bottom trace) or 10 min following giga-seal formation for RubpyC17 (top trace).
# Finally, to test whether illumination of RubpyC17 incorporated in cell membranes causes nonspecific membrane poration or other damage, 18 μM RubpyC17 was loaded inside a patch pipette and attached to a cell (gigaseal formation) in the cell-attached configuration. This is the same configuration used routinely for perforated-patch recording. […]
# [4] = test system: cell lines and primary cells; assay: Cell tolerance to RubpyC17 incubation (gigaseal stability, viability); type: cell-based
# Experimental: However, in several embodiments, other organic ligands coupled to other transition metals are also used, with reduced and/or non-existent adverse side effects. […] Excessive and prolonged whole cell incubation with RubpyC17 (e.g., >10 μM for >5 min) may result in cell toxicity, since a stable gigaseal cannot be stably maintained in those cells. At this time, the mechanism behind the adverse effects on cell health upon RubpyC17 overexposure is not yet fully known. Since perforation was not achieved when a small patch of membrane was exposed to a high dose of RupbyC17, it was hypothesized that when an entire cell is overexposed to RubpyC17, there may be sufficient random interactions between excess RubpyC17 complex and endogenous surface molecules (i.e., proteins, carbohydrates, sugars), triggering signals that lead to cell health deterioration. However, when used in its appropriate dose range (e.g., <about 10 μM for cell lines and <about 2 μM for primary cells, according to one embodiment), RubpyC17 is tolerated by cells and consistently confers light sensitivity.
smiles,measurement,setting,value
"CCCCCCCCCCCCCCCCCc1ccnc(-c2cc(C)ccn2)c1.F[P-](F)(F)(F)(F)F.F[P-](F)(F)(F)(F)F.[Ru+2].c1ccc(-c2ccccn2)nc1.c1ccc(-c2ccccn2)nc1 [RubpyC17, [Ru(bpy)2(bpy-C17)](PF6)2]",light-induced action potential firing / spike frequency,[1]; listed as Rubpy,spike frequency increased
same,light-induced action potential firing / spike frequency,[1]; listed as Rubpy-C17,respond to illumination by firing action potentials
same,time for which all cell types preserved morphology,[2]; 10 μM RubpyC17,at least 10 minutes
same,incorporation into cell membranes (plasma membrane-localized luminescence),"[2]; 10 μM in bath, INS, HEK293T, mouse chromaffin cells",rapidly and stably incorporates into mammalian cell membranes
same,membrane luminescence after RubpyC17 removal from the bath solution,[2]; at 10 minutes after removal,still observed
same,electron transfer rate ket to oxidant ferricyanide,[3],~6.5e+09 M⁻¹ s⁻¹
same,capacitive charging transient (membrane perforation),chromaffin cells,an increase in the capacitive charging transient was not detected; also recorded: did not perforate chromaffin cells
same,dose range tolerated by cells,[4]; cell lines,< 10 µM
same,viability after incubation,"[4]; chromaffin cells, ~30 min with RubpyC17",continued viability of chromaffin cells
same,whole cell incubation concentration that may result in cell toxicity,"[4]; for >5 min, stable gigaseal not maintained",> 10 µM
same,dose range tolerated by cells,[4]; primary cells,< 2 µM
